Assay results taken from patent US20170027877A1, “DRUG COMPOSITION AND METHOD FOR PREPARING THE SAME” (priority 2015, published 2017).

Assay: Test for encapsulating rate of drugs in nanoparticles encapsulating double drugs
Type: physicochemical
Conditions: trend as pH of the aqueous mixture solution increased (pH 7.5 to 11, FIG. 1)
Procedure: The synthesized nanoparticles encapsulating double drugs were placed in a concentrating centrifuge tube, and perform centrifugation at a speed of 4,000 rpm for 30 minutes.
(1). Encapsulating Rate of Cisplatin
The clear solution in the concentrating centrifuge tube was diluted 20 folds and mixed with 0.14% solution of o-phenylenediamine in dimethylformamide at a ratio of 1:1, the mixture was heated at 100° C. for 30 minutes and then was cooled in a refrigerator at −20° C. for 10 minutes, finally, the solution was examined for the peak value at a wavelength of 705 nm with UV-visual spectrum, and content of non-encapsulated Cisplatin was converted from the peak value, thereby giving the encapsulating rate of Cisplatin.
(2). Encapsulating Rate Test of Demethoxycurcumin
The nanoparticles on the filter membrane of the concentrating centrifuge tube were re-dissolved in double-distilled water, the solution was mixed with methanol at a ratio of 1:1, and the mixture was analyzed using HPLC. The determination was performed at a flow rate of 1 mL/min under the detection condition at a wavelength of 425 nm, using C18 as stationary phase and acetonitrile-0.3% FA (50:50, v/v) as mobile phase, and the detection result was converted into the concentration of demethoxycurcumin to obtain the encapsulating rate of the drug.

N.N.[Cl][Pt][Cl] [Cisplatin]
encapsulating rate: increased
